In patent publication US20040044032A1, “Farnesyl protein transfer inhibitors for the treatment of inflammatory bowel disease” (priority 2003, published 2004):
Like-named read-outs stand apart in the source and are kept apart here.

Columns and labels:
[1] = tested on: DSS-induced colitis in mice; type: in vivo; details: for Mean Weight (±SEM) DAY 0: Day 0 (baseline); for Mean Colon Length Cm ± SEM: necropsy Day 7; for deaths: 10 mice/group
From the text: The purpose of this study was to identify, characterize and document the preventative actions of compound 75 above, namely (+)-6-[amino(4-chlorophenyl) (1-methyl-1H-imidazol-5-yl)methyl]-4-(3-chlorophenyl)-1-methyl-2(1H)-quinolinone, a compound of formulae (I), in an experimental model of inflammatory bowel disease in mice.
A group of female Swiss-Webster mice was received from Ace Animals, Inc., Boyertown, Pa. The animals were grouped housed (5 mice/cage) in plastic cages with water absorbent bedding. […] The animals were fed Purina Rodent Chow #5012 and filtered tap water was supplied ad libitum by automatic watering system (during acclimation).
Following an acclimation period of 9 days, 40 healthy mice were selected for this study. The test animals were distributed (10 mice/group) into each one of the 4 test groups described below. There were no statistical significant differences between the mean group body weights.
Individual doses were calculated based on daily body weights. Prior to administration, Compound 75 was mixed with the vehicle (Beta cyclodextrin (40%) in 0.1 N HCL). This mixture was further diluted with 0.1 N HCL. The resulting mixture was then used to prepare the dilutions for groups 3 and 4. A 20% solution of Beta cyclodextrin in 0.1 N HCL was used for Groups 1 and 2 and constituted the vehicle control. Groups 2 through 4 were given a 5% w/w solution of dextran sulfate sodium (DSS) in distilled water substituted for their normal water supply (approximately 10 ml/mouse/day) from Days 0 through 6. Each group of animals received the appropriate amount of the test substance, as described above, by intubation using a stainless steel ball-tipped gavage needle attached to an appropriate syringe.
(§1) All mice were weighed daily and observed for signs of gross toxicity and behavioural changes, consistency of stool and presence of gross blood during the study. On Day 7, all animals were euthanized by CO2 inhalation and necropsied. Following euthanasia, a stool sample was obtained from the colon of each animal and tested for occult blood (Quik-Cult, Laboratory Diagnostics Co., Morganville, N.J.). The colons were then removed and the length from the colo-cecal junction to the end of the distal rectum was measured. A segment of colon was collected from each animal and preserved in 10% formalin.
(§2) For each group, the disease activity index (DAI) was determined by evaluating changes in weight, Hemoccult positivity or gross bleeding and stool consistency using the following system.
(§3) Data was analyzed using analysis of variance (single factor). Statistically methods included the Mann-Whitney test, ANOVA and Turkey-Kramer Multiple Comparisons test.
(§4) Statistical significance between test and control groups was established at a probability of p<0.05.

[2] = tested on: DSS-induced colitis in mice; test: Prevention of DSS-induced colitis in mice, repeat study with lower PO doses in 0.1 N HCl; type: in vivo; details: for weight DAY 0: Day 0 (baseline); for % Inh. Colonic Shortening / % of Normal Length Shortening / DAI mean ± SEM / DAINWT mean ± SEM / Mean Colon Length Cm ± SEM: 5% DSS days 0-7
From the text: as §1, §2, §3, §4
In view of the above results the experiment was repeated with lower doses of compound 75. The above procedure was followed with the following groups
Individual doses were calculated based on daily body weights. Prior to administration, 50 mg of Compound 75 was diluted with 10 milliliters of 0.1N HCl (50 mg/kg for Group 5). The resulting solution was then further diluted twice, with 5 ml increments and used for the 25 (Group 4) and 12.5 (Group 3) mg/kg dose levels. The 0.1 N HCl was used for Groups 1 and 2 and constituted the vehicle control. Groups 2 through 5 were given a 5% w/w solution of dextran sulfate sodium (DSS) in distilled water substituted for their normal water supply (approximately 10 ml:mouse/day) from Days 0 through 7. Each group of animals received the appropriate amount of the test substance, as described above, by intubation using a stainless steel ball-tipped gavage needle attached to an appropriate syringe.

[3] = 25 mg/kg PO bid days 0-6, 5% DSS
[4] = 50 mg/kg PO bid days 0-6, 5% DSS

In the case of `Cn1cncc1C(N)(c1ccc(Cl)cc1)c1ccc2c(c1)c(-c1cccc(Cl)c1)cc(=O)n2C` (single isomer, unassigned; (+)) [Compound 75, (+)-6-[amino(4-chlorophenyl)(1-methyl-1H-imidazol-5-yl)methyl]-4-(3-chlorophenyl)-1-methyl-2(1H)-quinolinone], the “Mean Weight (±SEM) DAY 0” value ([1]; 25 mg/kg PO bid + DSS) is reported as 25.1 ± 0.5 grams, the “% weight change (±SEM) DAY 5” value ([1]; 25 mg/kg PO bid + DSS) is reported as −8.3 ± 1.5% and the “Mean Weight (±SEM) DAY 5” value ([1]; 25 mg/kg PO bid + DSS) is reported as 23.0 ± 0.5 grams. The “% weight change (±SEM) DAY 6” value ([1]; 25 mg/kg PO bid + DSS) was −8.7 ± 2.7%, the “Mean Weight (±SEM) DAY 6” value ([1]; 25 mg/kg PO bid + DSS) was 22.9 ± 0.7 grams and the “% weight change (±SEM) DAY 7” value ([1]; 25 mg/kg PO bid + DSS) was −9.6 ± 3.5%. For the same molecule, the “Mean Weight (±SEM) DAY 7” value ([1]; 25 mg/kg PO bid + DSS) was 22.7 ± 0.9 grams, the “% of Normal Length Shortening” value [1, 3] was 82.0% and the “Blood in Feces (%)” value [1, 3] was 0%. For the same molecule, the “DAI mean ± SEM” value [1, 3] was 1.70 ± 0.26, the “DAINWT Mean ± SEM (DAI without body weight parameter)” value [1, 3] was 1.50 ± 0.22 and the “Mean Colon Length Cm ± SEM” value [1, 3] was 9.7 ± 0.3 Cm. The deaths ([1]; 25 mg/kg dose) was 1, the “Mean Weight (±SEM) DAY 0” value ([1]; 50 mg/kg PO bid + DSS) was 25.6 ± 0.5 grams and the “% weight change (±SEM) DAY 5” value ([1]; 50 mg/kg PO bid + DSS) was −9.5 ± 1.3%. The “Mean Weight (±SEM) DAY 5” value ([1]; 50 mg/kg PO bid + DSS) was 23.1 ± 0.5 grams, the “% weight change (±SEM) DAY 6” value ([1]; 50 mg/kg PO bid + DSS) was −8.8 ± 2.2% and the “Mean Weight (±SEM) DAY 6” value ([1]; 50 mg/kg PO bid + DSS) was 23.3 ± 0.8 grams. The “% weight change (±SEM) DAY 7” value ([1]; 50 mg/kg PO bid + DSS) was −9.2 ± 1.9%, the “Mean Weight (±SEM) DAY 7” value ([1]; 50 mg/kg PO bid + DSS) was 23.2 ± 0.7 grams and the “% of Normal Length Shortening” value [1, 4] was 77.9%. The “Blood in Feces (%)” value [1, 4] was 22%, the “DAI mean ± SEM” value [1, 4] was 2.11 ± 0.25 and the “DAINWT Mean ± SEM (DAI without body weight parameter)” value [1, 4] was 2.06 ± 0.28. For the same molecule, the “Mean Colon Length Cm ± SEM” value [1, 4] was 9.2 ± 0.1 Cm, the deaths ([1]; 50 mg/kg dose) was 1 and the “prevention of colitis produced by 5% Dextran Sulfate Sodium” value ([1]; PO bid, 5% DSS) was “significant activity”. For the same molecule, the “protection against weight loss” value ([1]; any dose (25 and 50 mg/kg PO bid)) was “No significant protection”, the “shortening of the colon produced by DSS” value ([1]; dose levels of 25 and 50 mg/kg PO bid) was “prevented” and the “weight DAY 0” value ([2]; 12.5 mg/kg PO + DSS) was 23.6 ± 0.3. For the same molecule, the “% change (weight) DAY 5” value ([2]; 12.5 mg/kg PO + DSS) was “+1.3 ± 1.0%”, the “weight DAY 5” value ([2]; 12.5 mg/kg PO + DSS) was 23.9 ± 0.4 and the “% change (weight) DAY 6” value ([2]; 12.5 mg/kg PO + DSS) was 0.0 ± 1.0%. The “weight DAY 6” value ([2]; 12.5 mg/kg PO + DSS) was 23.6 ± 0.4, the “% change (weight) DAY 7” value ([2]; 12.5 mg/kg PO + DSS) was “+1.3 ± 1.0%” and the “weight DAY 7” value ([2]; 12.5 mg/kg PO + DSS) was 23.9 ± 0.4. For the same molecule, the “% Inh. Colonic Shortening” value ([2]; 12.5 mg/kg PO daily) was 65%, the “% of Normal Length Shortening” value ([2]; 12.5 mg/kg PO daily) was 89.6% and the “DAI mean ± SEM” value ([2]; 12.5 mg/kg PO daily) was 1.57 ± 0.17. For the same molecule, the “DAINWT mean ± SEM” value ([2]; 12.5 mg/kg PO daily) was 2.25 ± 0.25, the “Mean Colon Length Cm ± SEM” value ([2]; 12.5 mg/kg PO daily) was 10.0 ± 0.1 Cm and the “weight DAY 0” value ([2]; 25 mg/kg PO + DSS) was 24.2 ± 0.4. The “weight DAY 5” value ([2]; 25 mg/kg PO + DSS) was 24.7 ± 0.6, the “% change (weight) DAY 6” value ([2]; 25 mg/kg PO + DSS) was −1.2 ± 1.0% and the “weight DAY 6” value ([2]; 25 mg/kg PO + DSS) was 23.9 ± 0.5. The “% change (weight) DAY 7” value ([2]; 25 mg/kg PO + DSS) was “+2.9 ± 1.0%”, the “weight DAY 7” value ([2]; 25 mg/kg PO + DSS) was 24.9 ± 0.5 and the “% Inh. Colonic Shortening” value ([2]; 25 mg/kg PO) was 58%. The “% of Normal Length Shortening” value ([2]; 25 mg/kg PO) was 88.7%, the “DAI mean ± SEM” value ([2]; 25 mg/kg PO) was 1.53 ± 0.17 and the “DAINWT mean ± SEM” value ([2]; 25 mg/kg PO) was 2.30 ± 0.25. The “Mean Colon Length Cm ± SEM” value ([2]; 25 mg/kg PO) was 9.9 ± 0.3 Cm, the “weight DAY 0” value ([2]; 50 mg/kg PO + DSS) was 23.9 ± 0.3 and the “% change (weight) DAY 5” value ([2]; 50 mg/kg PO + DSS) was −0.7 ± 1.0%. For the same molecule, the “weight DAY 5” value ([2]; 50 mg/kg PO + DSS) was 23.9 ± 0.3, the “% change (weight) DAY 6” value ([2]; 50 mg/kg PO + DSS) was −1.6 ± 1.0% and the “weight DAY 6” value ([2]; 50 mg/kg PO + DSS) was 23.5 ± 0.3. The “% change (weight) DAY 7” value ([2]; 50 mg/kg PO + DSS) was −0.3 ± 2.0%, the “weight DAY 7” value ([2]; 50 mg/kg PO + DSS) was 23.8 ± 0.3 and the “% Inh. Colonic Shortening” value ([2]; 50 mg/kg PO) was 52%. For the same molecule, the “% of Normal Length Shortening” value ([2]; 50 mg/kg PO) was 87.0%, the “DAI mean ± SEM” value ([2]; 50 mg/kg PO) was 1.70 ± 0.18 and the “DAINWT mean ± SEM” value ([2]; 50 mg/kg PO) was 2.30 ± 0.24. For the same molecule, the “Mean Colon Length Cm ± SEM” value ([2]; 50 mg/kg PO) was 9.7 ± 0.2 Cm, the “deaths during the duration of the experiment” value ([2]; 12.5, 25, 50 mg/kg PO) was “No deaths” and the “dose of maximal effectiveness on prevention of colonic shortening” value ([2]; PO daily, lowest dose tested) was 12.5 mg/kg. For the same molecule, the “protection based on DAI and DAINWT” value ([2]; all doses (12.5, 25, 50 mg/kg PO)) was “statistically significant protection”.
